The values that follow come from PubChem BioAssay (NCI).

Some test systems named below: A549 NSCLC; NCI-H522 lung; SN12C renal; HS 578T breast; LOX IMVI melanoma; SK-MEL-2 melanoma; KM12 colon; UACC-62 melanoma.
Common to all, as to assay: growth of human tumour cells (NCI), 48 h

The structures appear in SMILES notation.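 Method: 48-hour compound exposure of cells in 96-well plates, five concentrations, linear interpolation of endpoints. Abbreviation: GI50, concentration required for 50% inhibition of growth. The concentration for full growth arrest is given as TGI.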 Where only a bound is given, the exact number is not on record here.

For `O=C(/C=C/c1ccccc1)CCc1c(O)c2ccccc2oc1=O`, the TGI in the assay on A549 NSCLC, in the assay on NCI-H522 lung, in the assay with SN12C renal, in the assay on HS 578T breast, in the assay on LOX IMVI melanoma and in the assay with SK-MEL-2 melanoma was over 100 µM in each case. In addition, the TGI with KM12 colon and with UACC-62 melanoma was over 100 µM each time.
For the compound `COc1ccc(S(=O)(=O)n2c3ccccc3n3ncc(-c4nnc(C)o4)c23)cc1`, the GI50 was 0.768 µM in the assay with A549 NSCLC; 0.42 µM in the assay on NCI-H522 lung; 0.73 µM with SN12C renal; 0.394 µM in the assay on HS 578T breast; 0.561 µM in the assay with LOX IMVI melanoma; 0.815 µM in the assay with SK-MEL-2 melanoma. Besides, the GI50 is 0.465 µM in the assay on KM12 colon and 0.609 µM in the assay on UACC-62 melanoma. Further, the TGI in the assay with A549 NSCLC was over 100 µM; with NCI-H522 lung it was over 73.6 µM; with SN12C renal it was 39.6 µM; in the assay on HS 578T breast it was over 100 µM; in the assay with LOX IMVI melanoma it was 26.1 µM; in the assay on SK-MEL-2 melanoma, 82.1 µM. Besides, the TGI in the assay on KM12 colon amounted to 19.9 µM; in the assay with UACC-62 melanoma, 32.5 µM.
For `C=C(C)[C@@H]1CC[C@]2(C)[C@H](CC=C3[C@@H]4[C@H](C)[C@@H](C)CC[C@]4(CO)CC[C@]32C)[C@@]1(C)CCCN`, the GI50 with A549 NSCLC is 1.59 µM; in the assay on NCI-H522 lung, 1.04 µM; in the assay on SN12C renal, 0.839 µM; with HS 578T breast, 0.994 µM; with LOX IMVI melanoma, 0.859 µM; with SK-MEL-2 melanoma it was 1.73 µM. Further, the GI50 with KM12 colon is 0.908 µM; in the assay with UACC-62 melanoma it was 5.82 µM. Besides, the TGI in the assay with A549 NSCLC amounted to 5.11 µM; in the assay on NCI-H522 lung, 2.17 µM; in the assay with SN12C renal, 1.67 µM; in the assay with HS 578T breast, 2.23 µM; in the assay with LOX IMVI melanoma, 1.57 µM; with SK-MEL-2 melanoma, 5.04 µM. Moreover, the TGI in the assay on KM12 colon was determined as 1.65 µM; in the assay on UACC-62 melanoma, 12.6 µM.
As for `O=C(O)c1ccc2cccnc2c1O`, the GI50 was 0.747 µM with A549 NSCLC; 0.948 µM in the assay with NCI-H522 lung; 0.797 µM with SN12C renal; 0.724 µM in the assay on HS 578T breast; 0.897 µM with LOX IMVI melanoma; 1.95 µM in the assay on SK-MEL-2 melanoma. The GI50 with KM12 colon was 2.02 µM; in the assay on UACC-62 melanoma, 1.54 µM. The TGI in the assay with A549 NSCLC is 25.8 µM; with NCI-H522 lung, 13.3 µM; in the assay on SN12C renal it was over 72.2 µM; in the assay on HS 578T breast, over 79.8 µM; in the assay on LOX IMVI melanoma it was 28.4 µM; in the assay on SK-MEL-2 melanoma it was 7.46 µM. The figures for the TGI in the assay on KM12 colon and in the assay with UACC-62 melanoma were 25 µM and 9.64 µM, respectively.
Regarding `O[C@H](CN1CC1)[C@@H](O)CN1CC1`, the GI50 in the assay with A549 NSCLC is 7.28 µM; in the assay with NCI-H522 lung it was 8.2 µM; with SN12C renal, 1.86 µM; in the assay on HS 578T breast it was 20.4 µM; with LOX IMVI melanoma, 2.81 µM; with SK-MEL-2 melanoma, 41 µM. Besides, the GI50 in the assay with KM12 colon is 11.7 µM; with UACC-62 melanoma, 3.96 µM. Moreover, the TGI in the assay with A549 NSCLC was over 100 µM; with NCI-H522 lung, 83.3 µM; in the assay with SN12C renal, over 100 µM; in the assay on HS 578T breast, 79.2 µM; in the assay with LOX IMVI melanoma, 28.4 µM; in the assay with SK-MEL-2 melanoma, over 100 µM. In addition, the TGI is 28.1 µM in the assay on KM12 colon and over 100 µM with UACC-62 melanoma.
For the compound `CCC(=O)OC1=CN2C(=NC(c3ccc(N)cc3)=CC2c2cc(OC)c(OC)c(OC)c2)S1` (stereo unspecified), the GI50 with A549 NSCLC is 3.22 µM; in the assay with NCI-H522 lung, 3.49 µM; in the assay with SN12C renal, 4.34 µM; with HS 578T breast it was 3.6 µM; with LOX IMVI melanoma it was 3.45 µM; in the assay with SK-MEL-2 melanoma, 5.93 µM. Moreover, the GI50 was 3.48 µM in the assay with KM12 colon and 3.03 µM in the assay on UACC-62 melanoma. Further, the TGI is 26 µM with A549 NSCLC; 12.6 µM with NCI-H522 lung; 22.2 µM in the assay with SN12C renal; over 100 µM with HS 578T breast; 13 µM in the assay on LOX IMVI melanoma; 20.4 µM in the assay with SK-MEL-2 melanoma. Also, the TGI amounted to 11.7 µM with KM12 colon and 11.8 µM with UACC-62 melanoma.
For the compound `Cc1[nH]n(-c2ccccc2)c(=O)c1C(=O)c1ccccc1`, the GI50 in the assay on A549 NSCLC was 11.7 µM; in the assay on NCI-H522 lung, over 25 µM; with SN12C renal, over 25 µM; in the assay on HS 578T breast, over 25 µM; in the assay with LOX IMVI melanoma, over 25 µM; in the assay with SK-MEL-2 melanoma, over 25 µM. The figures for the GI50 in the assay with KM12 colon and in the assay with UACC-62 melanoma were 11.7 µM and over 25 µM, respectively. In addition, the TGI in the assay on A549 NSCLC, with NCI-H522 lung, in the assay with SN12C renal, with HS 578T breast, in the assay with LOX IMVI melanoma and with SK-MEL-2 melanoma was over 25 µM throughout. In addition, the TGI in the assay with KM12 colon and in the assay on UACC-62 melanoma was over 25 µM in each case.
With `O=c1[nH]cnc2nc(-c3ccc(N(CCCl)CCCl)cc3)[nH]c12`, the GI50 with A549 NSCLC was 6.19 µM; with NCI-H522 lung, over 100 µM; in the assay on SN12C renal it was 63.7 µM; with HS 578T breast, 27.2 µM; in the assay with LOX IMVI melanoma it was 1.75 µM; in the assay with SK-MEL-2 melanoma, over 100 µM. The GI50 is 70.3 µM in the assay with KM12 colon and 0.507 µM in the assay on UACC-62 melanoma. Also, the TGI in the assay with A549 NSCLC, in the assay with NCI-H522 lung, in the assay with SN12C renal, with HS 578T breast, in the assay with LOX IMVI melanoma and with SK-MEL-2 melanoma was over 100 µM each time. Also, the TGI in the assay on KM12 colon was over 100 µM; in the assay on UACC-62 melanoma it was 71.6 µM.
For `Cc1ccc([N+](=O)[O-])cc1NC(=O)C(=O)C1CCC2=C(Sc3ccccc3N2)C1=O` (stereo unspecified), the TGI in the assay on A549 NSCLC, in the assay on NCI-H522 lung, with SN12C renal, in the assay with HS 578T breast, in the assay with LOX IMVI melanoma and in the assay with SK-MEL-2 melanoma was over 100 µM throughout. Moreover, the TGI in the assay on KM12 colon and in the assay on UACC-62 melanoma was over 100 µM each time.
As for `CC(C)(O)CCC(O)C(C)(O)C1CCC2(O)C3=CC(=O)C4(O)CC(O)C(O)CC4(C)C3CCC12C` (stereo unspecified) (tested in a mixture with another compound), the TGI in the assay with A549 NSCLC, with NCI-H522 lung, in the assay with SN12C renal, in the assay on HS 578T breast, in the assay on LOX IMVI melanoma and with SK-MEL-2 melanoma was over 100 µM throughout. Also, the TGI in the assay on KM12 colon and in the assay on UACC-62 melanoma was over 100 µM throughout.
